Assay results reported in ChEMBL document CHEMBL5120845, “Design and synthesis of novel macrolones bridged with linkers from 11,12-positions of macrolides” (Bioorg Med Chem Lett, 2022).
Converted amounts (≈) assume the structure as drawn.

Columns and labels:
Type in all cases: functional
[1] = test system: Streptococcus pneumoniae; test: Antibacterial activity against Streptococcus pneumoniae ATCC 49619 by microbroth dilution method
[2] = test system: Streptococcus pneumoniae; test: Antibacterial activity against Streptococcus pneumoniae 07P390 by microbroth dilution method
[3] = test system: Streptococcus pneumoniae; test: Antibacterial activity against Streptococcus pneumoniae PU09 by microbroth dilution method
[4] = test system: Streptococcus pyogenes; test: Antibacterial activity against Streptococcus pyogenes 12-206 by microbroth dilution method
[5] = test system: Staphylococcus aureus; test: Antibacterial activity against Staphylococcus aureus 15B196 by microbroth dilution method
[6] = test system: Staphylococcus aureus; test: Antibacterial activity against Staphylococcus aureus PU32 by microbroth dilution method
[7] = test system: Haemophilus influenzae; test: Antibacterial activity against Haemophilus influenzae ATCC 49247 by microbroth dilution method

| Compound | MIC [1] [µg/mL] | MIC [2] [µg/mL] | MIC [3] [µg/mL] | MIC [4] [µg/mL] | MIC [5] [µg/mL] | MIC [6] [µg/mL] | MIC [7] [µg/mL] |
| --- | --- | --- | --- | --- | --- | --- | --- |
| CC[C@H]1OC(=O)[C@H](C)C(=O)[C@H](C)[C@@H](O[C@@H]2O[C@H](C)C[C@H](N(C)C)[C@H]2O)[C@](C)(OC)C[C@@H](C)C(=O)[C@H](C)[C@H]2N(CCCCCCC#Cc3ccc4c(=O)c(C(=O)O)cn(C5CC5)c4c3)C(=O)O[C@]12C | ≤ 0.008 | 8 (≈ 8.44 µM) | 1 (≈ 1.05 µM) | 1 (≈ 1.05 µM) | 32 (≈ 33.7 µM) | 4 (≈ 4.22 µM) | 16 (≈ 16.9 µM) |
| CC[C@H]1OC(=O)[C@H](C)C(=O)[C@H](C)[C@@H](O[C@@H]2O[C@H](C)C[C@H](N(C)C)[C@H]2O)[C@](C)(OC)C[C@@H](C)C(=O)[C@H](C)[C@H]2N(CCN3CCN(c4cc5c(cc4F)c(=O)c(C(=O)O)cn5C4CC4)CC3)C(=O)O[C@]12C | 0.03 (≈ 0.0309 µM) | 2 (≈ 2.06 µM) | 2 (≈ 2.06 µM) | 1 (≈ 1.03 µM) | 256 (≈ 264 µM) | 4 (≈ 4.12 µM) | 32 (≈ 33 µM) |
| CC[C@H]1OC(=O)[C@H](C)C(=O)[C@H](C)[C@@H](O[C@@H]2O[C@H](C)C[C@H](N(C)C)[C@H]2O)[C@](C)(OC)C[C@@H](C)C(=O)[C@H](C)[C@H]2N(CCC#Cc3ccc4c(c3)c(=O)c(C(=O)O)cn4C3CC3)C(=O)O[C@]12C | 0.06 (≈ 0.0673 µM) | 256 (≈ 287 µM) | 1 (≈ 1.12 µM) | 4 (≈ 4.48 µM) | 512 (≈ 574 µM) | 2 (≈ 2.24 µM) | 32 (≈ 35.9 µM) |
| CC[C@H]1OC(=O)[C@H](C)C(=O)[C@H](C)[C@@H](O[C@@H]2O[C@H](C)C[C@H](N(C)C)[C@H]2O)[C@](C)(OC)C[C@@H](C)C(=O)[C@H](C)[C@H]2N(CCCCC#Cc3ccc4c(c3)c(=O)c(C(=O)O)cn4C3CC3)C(=O)O[C@]12C | 0.016 (≈ 0.0174 µM) | 128 (≈ 139 µM) | 1 (≈ 1.09 µM) | 4 (≈ 4.35 µM) | 256 (≈ 278 µM) | 2 (≈ 2.17 µM) | 32 (≈ 34.8 µM) |
| CC[C@H]1OC(=O)[C@H](C)C(=O)[C@H](C)[C@@H](O[C@@H]2O[C@H](C)C[C@H](N(C)C)[C@H]2O)[C@](C)(OC)C[C@@H](C)C(=O)[C@H](C)[C@H]2N(CCCCCC#Cc3ccc4c(c3)c(=O)c(C(N)=O)cn4C3CC3)C(=O)O[C@]12C | 0.016 (≈ 0.0171 µM) | 4 (≈ 4.29 µM) | 1 (≈ 1.07 µM) | 2 (≈ 2.14 µM) | 128 (≈ 137 µM) | 8 (≈ 8.57 µM) | 64 (≈ 68.6 µM) |
| CC[C@H]1OC(=O)[C@H](C)C(=O)[C@H](C)[C@@H](O[C@@H]2O[C@H](C)C[C@H](N(C)C)[C@H]2O)[C@](C)(OC)C[C@@H](C)C(=O)[C@H](C)[C@H]2N(CCN3CCN(c4c(F)cc5c(=O)c(C(=O)O)cn(C6CC6)c5c4OC)CC3)C(=O)O[C@]12C | 0.25 (≈ 0.25 µM) | 2 (≈ 2 µM) | 2 (≈ 2 µM) | 8 (≈ 8 µM) | 32 (≈ 32 µM) | 8 (≈ 8 µM) | 32 (≈ 32 µM) |
| CC[C@H]1OC(=O)[C@H](C)C(=O)[C@H](C)[C@@H](O[C@@H]2O[C@H](C)C[C@H](N(C)C)[C@H]2O)[C@](C)(OC)C[C@@H](C)C(=O)[C@H](C)[C@H]2N(CCCC#Cc3ccc4c(c3)c(=O)c(C(=O)O)cn4C3CC3)C(=O)O[C@]12C | 0.03 (≈ 0.0331 µM) | 128 (≈ 141 µM) | 1 (≈ 1.1 µM) | 2 (≈ 2.21 µM) | 256 (≈ 283 µM) | 4 (≈ 4.41 µM) | 8 (≈ 8.83 µM) |
| CC[C@H]1OC(=O)[C@H](C)C(=O)[C@H](C)[C@@H](O[C@@H]2O[C@H](C)C[C@H](N(C)C)[C@H]2O)[C@](C)(OC)C[C@@H](C)C(=O)[C@H](C)[C@H]2N(CCC#Cc3ccc4c(=O)c(C(=O)O)cn(C5CC5)c4c3)C(=O)O[C@]12C | 0.016 (≈ 0.0179 µM) | 2 (≈ 2.24 µM) | 0.5 (≈ 0.561 µM) | 1 (≈ 1.12 µM) | 16 (≈ 17.9 µM) | 0.25 (≈ 0.28 µM) | 4 (≈ 4.48 µM) |
| CC[C@H]1OC(=O)[C@H](C)C(=O)[C@H](C)[C@@H](O[C@@H]2O[C@H](C)C[C@H](N(C)C)[C@H]2O)[C@](C)(OC)C[C@@H](C)C(=O)[C@H](C)[C@H]2N(CCCCCC#Cc3ccc4c(=O)c(C(=O)O)cn(C5CC5)c4c3)C(=O)O[C@]12C | ≤ 0.008 | 16 (≈ 17.1 µM) | 1 (≈ 1.07 µM) | 2 (≈ 2.14 µM) | 128 (≈ 137 µM) | 4 (≈ 4.28 µM) | 16 (≈ 17.1 µM) |
| CC[C@H]1OC(=O)[C@H](C)C(=O)[C@H](C)[C@@H](O[C@@H]2O[C@H](C)C[C@H](N(C)C)[C@H]2O)[C@](C)(OC)C[C@@H](C)C(=O)[C@H](C)[C@H]2N(CCC#Cc3ccc4c(=O)c(C(N)=O)cn(C5CC5)c4c3)C(=O)O[C@]12C | 0.06 (≈ 0.0673 µM) | 128 (≈ 144 µM) | 0.12 (≈ 0.135 µM) | 32 (≈ 35.9 µM) | 512 (≈ 575 µM) | 1 (≈ 1.12 µM) | 128 (≈ 144 µM) |
| O=C(O)c1cn(C2CC2)c2cc(N3CCNCC3)c(F)cc2c1=O [CIPROFLOXACIN] | 1 (≈ 3.02 µM) | 2 (≈ 6.04 µM) | 2 (≈ 6.04 µM) | 0.25 (≈ 0.754 µM) | 1 (≈ 3.02 µM) | 32 (≈ 96.6 µM) | 0.03 (≈ 0.0905 µM) |
| CC[C@H]1OC(=O)[C@H](C)C(=O)[C@H](C)[C@@H](O[C@@H]2O[C@H](C)C[C@H](N(C)C)[C@H]2O)[C@](C)(OC)C[C@@H](C)C(=O)[C@H](C)[C@H]2N(CCCCCCC#Cc3ccc4c(c3)c(=O)c(C(=O)O)cn4C3CC3)C(=O)O[C@]12C | ≤ 0.008 | 16 (≈ 16.9 µM) | 1 (≈ 1.05 µM) | 1 (≈ 1.05 µM) | 128 (≈ 135 µM) | 4 (≈ 4.22 µM) | 4 (≈ 4.22 µM) |
| CC[C@H]1OC(=O)[C@H](C)C(=O)[C@H](C)[C@@H](O[C@@H]2O[C@H](C)C[C@H](N(C)C)[C@H]2O)[C@](C)(OC)C[C@@H](C)C(=O)[C@H](C)[C@H]2N(CCCCCC#Cc3ccc4c(c3)c(=O)c(C(=O)O)cn4C3CC3)C(=O)O[C@]12C | ≤ 0.008 | 32 (≈ 34.3 µM) | 1 (≈ 1.07 µM) | 2 (≈ 2.14 µM) | 128 (≈ 137 µM) | 8 (≈ 8.56 µM) | 32 (≈ 34.3 µM) |
| CC[C@H]1OC(=O)[C@H](C)C(=O)[C@H](C)[C@@H](O[C@@H]2O[C@H](C)C[C@H](N(C)C)[C@H]2O)[C@](C)(OC)C[C@@H](C)C(=O)[C@H](C)[C@H]2N(CCCN3CCN(c4cc5c(cc4F)c(=O)c(C(N)=O)cn5C4CC4)CC3)C(=O)O[C@]12C | 0.12 (≈ 0.122 µM) | 256 (≈ 260 µM) | 2 (≈ 2.03 µM) | 8 (≈ 8.14 µM) | 512 (≈ 521 µM) | 2 (≈ 2.03 µM) | 128 (≈ 130 µM) |
| CC[C@H]1OC(=O)[C@H](C)C(=O)[C@H](C)[C@@H](O[C@@H]2O[C@H](C)C[C@H](N(C)C)[C@H]2O)[C@](C)(OC)C[C@@H](C)C(=O)[C@H](C)[C@H]2N(CCCC#Cc3ccc4c(=O)c(C(N)=O)cn(C5CC5)c4c3)C(=O)O[C@]12C | 0.03 (≈ 0.0331 µM) | 128 (≈ 141 µM) | 2 (≈ 2.21 µM) | 4 (≈ 4.42 µM) | 512 (≈ 566 µM) | 4 (≈ 4.42 µM) | 128 (≈ 141 µM) |
| CC[C@H]1OC(=O)[C@H](C)C(=O)[C@H](C)[C@@H](O[C@@H]2O[C@H](C)C[C@H](N(C)C)[C@H]2O)[C@](C)(OC)C[C@@H](C)C(=O)[C@H](C)[C@H]2N(CCCCc3ccc4c(=O)c(C(N)=O)cn(C5CC5)c4c3)C(=O)O[C@]12C | 0.03 (≈ 0.0335 µM) | 32 (≈ 35.8 µM) | 0.25 (≈ 0.279 µM) | 4 (≈ 4.47 µM) | 512 (≈ 572 µM) | 1 (≈ 1.12 µM) | 32 (≈ 35.8 µM) |
| CC[C@H]1OC(=O)[C@H](C)C(=O)[C@H](C)[C@@H](O[C@@H]2O[C@H](C)C[C@H](N(C)C)[C@H]2O)[C@](C)(OC)C[C@@H](C)C(=O)[C@H](C)[C@H]2N(CC/C=C\c3ccc4c(c3)c(=O)c(C(=O)O)cn4C3CC3)C(=O)O[C@]12C | ≤ 0.008 | 32 (≈ 35.8 µM) | 1 (≈ 1.12 µM) | 2 (≈ 2.24 µM) | 256 (≈ 286 µM) | 0.5 (≈ 0.559 µM) | 8 (≈ 8.95 µM) |
| CC[C@H]1OC(=O)[C@H](C)C(=O)[C@H](C)[C@@H](O[C@@H]2O[C@H](C)C[C@H](N(C)C)[C@H]2O)[C@](C)(OC)C[C@@H](C)C(=O)[C@H](C)[C@H]2N(CCCCN3CCN(c4cc5c(cc4F)c(=O)c(C(=O)O)cn5C4CC4)CC3)C(=O)O[C@]12C | ≤ 0.008 | 2 (≈ 2 µM) | 0.5 (≈ 0.501 µM) | 0.5 (≈ 0.501 µM) | 256 (≈ 256 µM) | 2 (≈ 2 µM) | 8 (≈ 8.01 µM) |
| CC[C@H]1OC(=O)[C@H](C)C(=O)[C@H](C)[C@@H](O[C@@H]2O[C@H](C)C[C@H](N(C)C)[C@H]2O)[C@](C)(OC)C[C@@H](C)C(=O)[C@H](C)[C@H]2N(CCCC#Cc3ccc4c(=O)c(C(=O)O)cn(C5CC5)c4c3)C(=O)O[C@]12C | 0.03 (≈ 0.0331 µM) | 2 (≈ 2.21 µM) | 1 (≈ 1.1 µM) | 2 (≈ 2.21 µM) | 256 (≈ 283 µM) | 4 (≈ 4.41 µM) | 32 (≈ 35.3 µM) |
| CC[C@H]1OC(=O)[C@H](C)C(=O)[C@H](C)[C@@H](O[C@@H]2O[C@H](C)C[C@H](N(C)C)[C@H]2O)[C@](C)(OC)C[C@@H](C)C(=O)[C@H](C)[C@H]2N(CCCCc3ccc4c(c3)c(=O)c(C(=O)O)cn4C3CC3)C(=O)O[C@]12C | 0.06 (≈ 0.067 µM) | 64 (≈ 71.4 µM) | 4 (≈ 4.46 µM) | 2 (≈ 2.23 µM) | 512 (≈ 571 µM) | 1 (≈ 1.12 µM) | 32 (≈ 35.7 µM) |
| CC[C@H]1OC(=O)[C@H](C)C(=O)[C@H](C)[C@@H](O[C@@H]2O[C@H](C)C[C@H](N(C)C)[C@H]2O)[C@](C)(OC)C[C@@H](C)C(=O)[C@H](C)[C@H]2N(CCCCC#Cc3ccc4c(=O)c(C(=O)O)cn(C5CC5)c4c3)C(=O)O[C@]12C | 0.016 (≈ 0.0174 µM) | 8 (≈ 8.69 µM) | 2 (≈ 2.17 µM) | 2 (≈ 2.17 µM) | 256 (≈ 278 µM) | 2 (≈ 2.17 µM) | 32 (≈ 34.8 µM) |
| CC[C@H]1OC(=O)[C@H](C)C(=O)[C@H](C)[C@@H](O[C@@H]2O[C@H](C)C[C@H](N(C)C)[C@H]2O)[C@](C)(OC)C[C@@H](C)C(=O)[C@H](C)[C@H]2N(CCC#Cc3ccc4c(c3)c(=O)c(C(N)=O)cn4C3CC3)C(=O)O[C@]12C | ≤ 0.008 | 8 (≈ 8.98 µM) | 1 (≈ 1.12 µM) | 1 (≈ 1.12 µM) | 32 (≈ 35.9 µM) | 1 (≈ 1.12 µM) | 16 (≈ 18 µM) |
